Several values for one entry are separate records, joined by “and”; a condition that tells them apart may be missing. Identical values can stand only once. Like-named read-outs stand apart in the source and are kept apart here.
How the values were obtained:
GK rats [1] = assay: GK rat acute efficacy (glucose, insulin, glucagon after single dose); assay type: in vivo; details: 100 mpk
Procedure: Ambient blood glucose was measured via tail snip with a glucometer (OneTouch Ultra, Lifescan Inc., Milpitas, CA). Body weights were then measured, and food was removed approximately 1 hr post lights on. Animals were sorted into treatment groups based on ambient glucose. At approximately 10 AM, glucose was measured and blood for insulin, glucagon, and drug exposure was collected. […] Each compound tested was dosed at its maximal effective dose determined through a series of dose titrations using this experimental paradigm (data not shown). Effects of treatment on glucose, insulin, and glucagon were measured at 1, 2, 4, and 24 hrs post dose. After the 4 hr blood collection, food was returned overnight and removed the next day at 1 hr post lights on.
(§1) Blood for insulin, glucagon, GLP-1, GIP, and PYY measurements was collected into K2EDTA Microtainer tubes (BD, Franklin Lakes, NJ) pre-treated with DPP4 inhibitor (Millipore, Billerica, MA) and cOmplete™ Protease Inhibitor Cocktail Tablets (Roche Diagnostics, Indianapolis, IN). Tubes were centrifuged for 10 minutes at 5000 RPM, and plasma was aliquotted for analysis. Plasma insulin levels were measured via EIA (Mesoscale Discovery ELISA Kit, Gaithersburg MD). Rat plasma total GLP-1 was measured using Total GLP-1 (ver.2) Assay Kit (Cat#: K150JVC). The measurement of active GLP-1 was carried out in a similar manner as that described for total GLP-1 assay with the exception that MSD Active GLP-1 (ver. 2) assay kit (Cat# K150JWC) was used. Rat plasma glucagon was measured using an in-house glucagon assay developed as a MSD format sandwich immunoassay (Merck & Co., Inc., MRL, Kenilworth, NJ USA). The antibody specificity was cross validated via mass- spec using procedures described in Lee et al. Briefly, MSD Streptavidin Gold plates were coated with 2 μg/ml biotin mouse monoclonal antibody generated to glucagon. Test samples were added to the plates and a separate Sulfo- tagged monoclonal antibody was used to detect the captured glucagon protein (2 μg/ml). The ELISA was carried out in the standard reagents in the MSD format. The plate was read on the SECTOR Imager 6000 Reader. Metabolic hormones GIP (Gastric Inhibitory Polypeptide) and PYY (Peptide YY) were measured in rat plasma using the Rat Metabolic Magnetic Bead Panel (EMD Millipore, Billerica, MA). The assay was performed according to manufacturer protocol.

GK rats [2] = assay: GK rat chronic efficacy (28 days: glucose, food intake, body weight, GLP-1, GIP, PYY, insulin, glucagon); assay type: in vivo; details: 30 mpk, day 28, fed, individual animals
Procedure: At the start of the study, fed (ambient) blood glucose was measured via glucometer at 1 h post lights on, and animals were selected and sorted into treatment groups based on ambient glucose (n = 10/ GK group, n = 6 WKY control). Blood for baseline incretin measurements was collected in the PM via tail vein. Rats were dosed via oral gavage (PO) at a volume of 5 ml/kg daily at approximately 12:30 PM with either vehicle (0.5% methylcellulose), AP1 at 30 mg/kg, or AP3 at 30 mg/kg. MK-8666, a GPR40 partial agonist synthesized at Merck & Co., Inc., Kenilworth, NJ USA [13], at 30 mg/kg was administered in feed (Research Diets, New Brunswick, NJ) and provided ad lib. All compounds were administered to achieve maximal efficacious exposures determined in acute efficacy studies similar to those acute studies described above. In brief, partial agonists and AgoPAMs were titrated in the acute GK rat experiment described above and the exposure associated with maximal efficacy in glucose lowering was noted. Partial agonists and AgoPAMs were then dosed to maintain those exposures up to 24h post dose. […] Rats from this group and the WKY controls were administered vehicle PO when the vehicle, AP1, and AP3 groups were treated. Fed blood glucose, food intake, and body weights were determined on days 10, 17, 23, and 28 of study at 2 h post lights on. Immediately after these measures were taken on days 10, 17, 23, and 28, food was removed. After 5h of fasting, animals were dosed with vehicle or compound and allowed to rest for an additional hour. Glucose, GLP-1, GIP, and PYY were measured after 6h of fasting at 1 hr post dose. Fed blood glucose is described by animals having had ad libidum access to feed up till the time of sampling and occurred at 2h post-lights on where rats were nearing the end of their nocturnal feeding cycle. Fasted blood glucose is described by blood glucose sampled after 6h of fasting where food was removed at 2h post lights on. Please note that the fasted sample was taken 1h post oral dosing. On day 10, blood was collected from the tail vein (20 μl) after morning glucose measures and after 6 hour fast from a subset of n = 3 rats per treatment group to determine the fed and fasted exposure of the compounds in circulation. The blood was stored at 4°C in 0.1 M sodium citrate for subsequent analysis of drug exposure.
as §1, with “protocol. […]” for “protocol.”

rat GPR40 = molecular target: T1, rat GPR40 (Rattus norvegicus, UniProt Q8K3T4); assay: Rat GPR40 IP1 accumulation assay; assay type: cell-based
T1 construct: expressed in transfected cells; host or cells: CHO-K1 (methods)
Procedure: (§2) Stable cell lines expressing human GPR40 (hGPR40/HEK293), mouse GPR40 (mGPR40/CHO-K1), and rat GPR40 (rGPR40/CHO-K1) were cultured in DMEM media supplemented with 10% FBS, glutamine, non-essential amino acids, and penicillin/streptomycin. hGPR40/HEK293 & mGPR40/CHO-K1 cell media was supplemented with […] G418 (Life Technologies), while rGPR40/CHO-K1 cells were grown in […] blasticidin plus […] hygromycin (Life Technologies). Cell stocks were maintained and grown in a sub-confluent state using standard cell culture procedures. The day before the experiment, the cells were harvested with non-enzymatic cell dissociation buffer and re-suspended in DMEM supplemented with 10% FBS, glutamine, non-essential amino acids, penicillin/streptomycin at 0.15, 0.2 and 0.3 million cells per ml for human, mouse, and rat GPR40, respectively. […] The seeded plates were incubated overnight at 37 C.
(§3) On the day of the experiment, the growth media was removed from the assay by gently patting the assay plates on an absorbent sheet and 10 μl of IP1 stimulation buffer (Cis Bio IP-one Tb HTRF kit) supplemented with 50 mM LiCl is added to each well. Test compounds dissolved in DMSO were serially diluted in ½ log increments starting from 2 mM or 0.2 mM and 50 nl of the compound dilution was acoustically added to each well (final starting concentration 10 μM or 1 μM). Plates were then incubated for 60 minutes at room temperature and 10 μl of detection buffer (prepared as described in the Tb kit) is added to each well. The plates are then incubated one additional hour at room temperature. […] For each assay, a standard curve plate in which IP1 is titrated is also included. […] The percent activity at each concentration of test compound is determined using 0% activation (basal activity) determined in those wells that contain DMSO alone, while 100% activity is determined in wells that contained a concentration of a partial allosteric agonist know to activate GPR40. The % activity is then plotted versus the concentration of test compound and the dose response curve fitted to a standard 4-parameter non-linear regression model using a custom in-house developed software package (Merck & Co., Inc., MRL, Kenilworth, NJ, USA). Maximal % activity and EC50 are then determined for each test compound.

mouse GPR40 = molecular target: T2, mouse GPR40 (Mus musculus, UniProt Q76JU9); assay: Mouse GPR40 IP1 accumulation assay; assay type: cell-based
T2 construct: expressed in transfected cells; host or cells: CHO-K1 (methods)
Procedure: as §2, §3

T1 sequence (Q8K3T4 whole entry): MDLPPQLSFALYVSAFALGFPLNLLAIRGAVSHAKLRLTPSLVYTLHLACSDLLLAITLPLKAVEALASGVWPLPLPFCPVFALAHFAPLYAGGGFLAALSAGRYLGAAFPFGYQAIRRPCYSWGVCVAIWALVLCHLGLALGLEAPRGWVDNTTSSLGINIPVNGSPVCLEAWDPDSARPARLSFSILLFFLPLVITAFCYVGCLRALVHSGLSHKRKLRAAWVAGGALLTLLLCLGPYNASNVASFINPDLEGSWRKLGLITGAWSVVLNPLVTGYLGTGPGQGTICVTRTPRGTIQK
T2 sequence (Q76JU9 whole entry): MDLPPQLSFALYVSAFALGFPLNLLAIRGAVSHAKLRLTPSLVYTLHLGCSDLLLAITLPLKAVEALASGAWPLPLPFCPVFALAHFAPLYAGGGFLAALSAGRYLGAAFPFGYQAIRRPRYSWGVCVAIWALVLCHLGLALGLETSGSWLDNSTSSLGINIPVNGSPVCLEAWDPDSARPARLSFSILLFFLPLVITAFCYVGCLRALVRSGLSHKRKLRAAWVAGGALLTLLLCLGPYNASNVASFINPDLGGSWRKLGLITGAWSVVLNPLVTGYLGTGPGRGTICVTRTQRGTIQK

SMILES: Cc1cc(OCCCS(C)(=O)=O)cc(C)c1-c1cccc(COc2ccc3c(c2)OC[C@H]3CC(=O)O)c1 [TAK]
- Plasma Glucagon Over Time (Fig 2C) (GK rats [1]; time 0, individual animals): 75.2366 pg/mL and 59.5419 pg/mL and 46.7473 pg/mL and 119.065 pg/mL and 82.5246 pg/mL and 83.5453 pg/mL and 74.4881 pg/mL and 90.3444 pg/mL
- Plasma Insulin Over Time (Fig 2B) (GK rats [1]; time 0, individual animals): 2.655 ng/mL and 1.525 ng/mL and 2.703 ng/mL and 2.889 ng/mL and 1.936 ng/mL and 1.972 ng/mL and 2.503 ng/mL and 2.551 ng/mL
- Plasma Glucagon Over Time (Fig 2C) (GK rats [1]; time 1, individual animals): 168.277 pg/mL and 120.989 pg/mL and 104.57 pg/mL and 184.364 pg/mL and 130.682 pg/mL and 112.051 pg/mL and 81.0192 pg/mL and 132.45 pg/mL
- Plasma Insulin Over Time (Fig 2B) (GK rats [1]; time 1, individual animals): 3.3854 ng/mL and 2.854 ng/mL and 4.397 ng/mL and 4.229 ng/mL and 2.551 ng/mL and 2.055 ng/mL and 2.175 ng/mL and 2.74 ng/mL
- Plasma Glucagon Over Time (Fig 2C) (GK rats [1]; time 2, individual animals): 165.323 pg/mL and 244.359 pg/mL and 138.27 pg/mL and 211.843 pg/mL and 72.9369 pg/mL and 186.55 pg/mL and 94.6201 pg/mL and 160.38 pg/mL
- Plasma Insulin Over Time (Fig 2B) (GK rats [1]; time 2, individual animals): 2.858 ng/mL and 2.437 ng/mL and 3.152 ng/mL and 3.268 ng/mL and 1.276 ng/mL and 1.644 ng/mL and 1.778 ng/mL and 2.202 ng/mL
- Plasma Glucagon Over Time (Fig 2C) (GK rats [1]; time 4, individual animals): 85.2047 pg/mL and 62.7395 pg/mL and 105.981 pg/mL and 18.1244 pg/mL and 124.809 pg/mL and 199.712 pg/mL and 103.043 pg/mL and 175.312 pg/mL
- Plasma Insulin Over Time (Fig 2B) (GK rats [1]; time 4, individual animals): 1.494 ng/mL and 1.787 ng/mL and 2.636 ng/mL and 1.66 ng/mL and 1.848 ng/mL and 1.214 ng/mL and 2.191 ng/mL and 1.8763 ng/mL
- Plasma Glucagon Over Time (Fig 2C) (GK rats [1]; time 24, individual animals): 86.4436 pg/mL and 115.249 pg/mL and 67.5931 pg/mL and 36.8268 pg/mL and 81.8289 pg/mL and 118.991 pg/mL and 35.1523 pg/mL and 94.7909 pg/mL
- Plasma Insulin Over Time (Fig 2B) (GK rats [1]; time 24, individual animals): 1.093 ng/mL and 1.2004 ng/mL and 2.002 ng/mL and 0.9338 ng/mL and 1.238 ng/mL and 1.808 ng/mL and 1.437 ng/mL and 1.841 ng/mL

SMILES: C[C@H](C(=O)O)[C@H](c1ccc2c(c1)O[C@H](C1CN(Cc3cc(C(F)(F)F)ccc3C(F)(F)F)C1)CC2)C1CC1 [P3]
- Fed glucose on day 28 (Fig 3B) (GK rats [2]): 141 and 132 and 113 and 119 and 112 and 106 and 116 and 101

SMILES: CC#C[C@@H](CC(=O)O)c1ccc(OCc2cccc(-c3ccc(C(F)(F)F)cc3)c2)cc1 [AMG-837, reference compound]
- EC50 (rat GPR40; EC50 (nM), Rat GPR40, Functional Assay, individual determinations): 1.9 nM and 1.6 nM and 1.2 nM and 0.9 nM and 1.8 nM and 1.1 nM
- EC50 (rat GPR40; individual determinations, read-out: EC50 (nM), Rat GPR40, Functional Assay): 1.3 nM and 2.2 nM
- EC50 (rat GPR40; mean ± SD, n = 2–20, IP accumulation, read-out: Potency [EC50, nM] ± SD, Rat): 1.5 ± 0.41 nM
- EC50 (mouse GPR40; EC50 (nM), Mouse GPR40, Functional Assay, individual determinations): 2.6 nM and 3.6 nM and 1.7 nM and 1.1 nM and 1.8 nM
- EC50 (mouse GPR40; Potency [EC50, nM] ± SD, Mouse, mean ± SD, n = 2–20, IP accumulation): 1.9 ± 0.76 nM
- EC50 (mouse GPR40; individual determinations, read-out: EC50 (nM), Mouse GPR40, Functional Assay): 2 nM

Source: article PMC5650142, “GPR40 partial agonists and AgoPAMs: Differentiating effects on glucose and hormonal secretions in the rodent” (PLoS ONE, 2017)
